The text below walks through data of US20230241071A1, “COMBINATION TREATMENT OF LIVER DISORDERS” (Terns Pharmaceuticals, Inc., priority 2021, published 2023).

The target of assay [1] is T1, THR-β (Homo sapiens, UniProt P10828).
T1 sequence (P10828 1-461): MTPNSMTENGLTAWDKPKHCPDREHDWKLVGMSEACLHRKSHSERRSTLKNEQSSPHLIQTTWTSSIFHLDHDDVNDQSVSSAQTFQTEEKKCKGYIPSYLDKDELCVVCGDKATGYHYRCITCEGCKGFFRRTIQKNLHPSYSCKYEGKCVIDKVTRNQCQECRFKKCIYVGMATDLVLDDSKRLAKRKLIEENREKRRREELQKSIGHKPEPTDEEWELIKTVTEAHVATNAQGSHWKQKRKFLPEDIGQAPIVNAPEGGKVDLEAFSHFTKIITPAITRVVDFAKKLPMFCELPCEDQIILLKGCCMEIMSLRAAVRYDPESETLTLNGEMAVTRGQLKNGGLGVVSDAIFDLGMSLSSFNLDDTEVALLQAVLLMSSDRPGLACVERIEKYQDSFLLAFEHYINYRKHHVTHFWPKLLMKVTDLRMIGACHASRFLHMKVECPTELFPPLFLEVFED
Description: Agonistic activity toward the thyroxine receptor beta. The format is biochemical.

Assay [2] concerns SHBG, Apo B and serum lipids. Kind of assay: Single-ascending dose trial of Compound 2: serum PD markers. The format is in vivo, human. The arrangement: LDL-c change from baseline / HDL-c change from baseline / TC change from baseline / Apo B change from baseline: unit not given here. How it is done: Urine samples for Compound 2 concentration and PK sampling were collected pre-dose and at the following timepoints: 0-6 hours, 6-12 hours, 12-24 hours, and 24-48 hours. PK parameters were estimated via noncompartmental methods using Phoenix® WinNonlin® (Certara, LP, Princeton, N.J.). Concentrations of serum pharmacodynamic (PD) biomarkers apolipoprotein B (Apo B) and sex hormone binding globulin (SHBG) were measured using an immunoassay and serum lipids were determined using spectrophotometry.
PD sampling was performed pre-dose, and 48 hours and 72 hours post-dose. Percent change from baseline for PD markers were calculated using an ANCOVA model with percent change from baseline as dependent variable, treatment group as fixed effect, and baseline as covariate. Analyses used observed data only without imputation for missing data.

The target in assay [3] is T2, OATP1B1 (Homo sapiens, UniProt Q9Y6L6).
T2 sequence (Q9Y6L6 1-691): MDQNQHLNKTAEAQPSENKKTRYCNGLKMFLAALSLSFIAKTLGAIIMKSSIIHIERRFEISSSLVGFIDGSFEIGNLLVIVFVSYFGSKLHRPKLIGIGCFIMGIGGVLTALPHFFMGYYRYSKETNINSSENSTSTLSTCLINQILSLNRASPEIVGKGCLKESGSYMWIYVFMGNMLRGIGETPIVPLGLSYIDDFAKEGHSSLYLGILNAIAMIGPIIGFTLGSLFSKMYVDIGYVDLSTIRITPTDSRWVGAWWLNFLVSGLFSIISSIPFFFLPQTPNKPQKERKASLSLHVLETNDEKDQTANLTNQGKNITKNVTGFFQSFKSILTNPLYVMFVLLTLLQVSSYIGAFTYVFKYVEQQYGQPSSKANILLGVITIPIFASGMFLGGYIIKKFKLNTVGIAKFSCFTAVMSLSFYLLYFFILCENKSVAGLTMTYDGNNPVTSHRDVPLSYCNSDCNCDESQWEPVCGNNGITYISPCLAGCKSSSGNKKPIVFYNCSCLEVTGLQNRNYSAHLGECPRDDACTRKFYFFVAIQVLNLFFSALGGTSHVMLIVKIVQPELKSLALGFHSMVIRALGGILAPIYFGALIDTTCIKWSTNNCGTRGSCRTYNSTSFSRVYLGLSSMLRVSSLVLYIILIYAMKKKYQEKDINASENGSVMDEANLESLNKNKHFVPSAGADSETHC
Kind of assay: In vitro transporter inhibition, OATP1B1. The format is in vitro ADME.

Assay [4] deals with P-glycoprotein (P-gp) (Homo sapiens, UniProt P08183). The format is in vitro ADME.
Where [5] appears, read: Day 3 after single dose 3 mg (n = 6).
The mark [6] stands for this setting: Day 3 after single dose 10 mg (n = 6).
Where [7] appears, read: Day 3 after single dose 30 mg (n = 6).
The mark [8] stands for this setting: Day 3 after single dose 60 mg (n = 6).

P-glycoprotein (P-gp), sequence (P08183 whole entry): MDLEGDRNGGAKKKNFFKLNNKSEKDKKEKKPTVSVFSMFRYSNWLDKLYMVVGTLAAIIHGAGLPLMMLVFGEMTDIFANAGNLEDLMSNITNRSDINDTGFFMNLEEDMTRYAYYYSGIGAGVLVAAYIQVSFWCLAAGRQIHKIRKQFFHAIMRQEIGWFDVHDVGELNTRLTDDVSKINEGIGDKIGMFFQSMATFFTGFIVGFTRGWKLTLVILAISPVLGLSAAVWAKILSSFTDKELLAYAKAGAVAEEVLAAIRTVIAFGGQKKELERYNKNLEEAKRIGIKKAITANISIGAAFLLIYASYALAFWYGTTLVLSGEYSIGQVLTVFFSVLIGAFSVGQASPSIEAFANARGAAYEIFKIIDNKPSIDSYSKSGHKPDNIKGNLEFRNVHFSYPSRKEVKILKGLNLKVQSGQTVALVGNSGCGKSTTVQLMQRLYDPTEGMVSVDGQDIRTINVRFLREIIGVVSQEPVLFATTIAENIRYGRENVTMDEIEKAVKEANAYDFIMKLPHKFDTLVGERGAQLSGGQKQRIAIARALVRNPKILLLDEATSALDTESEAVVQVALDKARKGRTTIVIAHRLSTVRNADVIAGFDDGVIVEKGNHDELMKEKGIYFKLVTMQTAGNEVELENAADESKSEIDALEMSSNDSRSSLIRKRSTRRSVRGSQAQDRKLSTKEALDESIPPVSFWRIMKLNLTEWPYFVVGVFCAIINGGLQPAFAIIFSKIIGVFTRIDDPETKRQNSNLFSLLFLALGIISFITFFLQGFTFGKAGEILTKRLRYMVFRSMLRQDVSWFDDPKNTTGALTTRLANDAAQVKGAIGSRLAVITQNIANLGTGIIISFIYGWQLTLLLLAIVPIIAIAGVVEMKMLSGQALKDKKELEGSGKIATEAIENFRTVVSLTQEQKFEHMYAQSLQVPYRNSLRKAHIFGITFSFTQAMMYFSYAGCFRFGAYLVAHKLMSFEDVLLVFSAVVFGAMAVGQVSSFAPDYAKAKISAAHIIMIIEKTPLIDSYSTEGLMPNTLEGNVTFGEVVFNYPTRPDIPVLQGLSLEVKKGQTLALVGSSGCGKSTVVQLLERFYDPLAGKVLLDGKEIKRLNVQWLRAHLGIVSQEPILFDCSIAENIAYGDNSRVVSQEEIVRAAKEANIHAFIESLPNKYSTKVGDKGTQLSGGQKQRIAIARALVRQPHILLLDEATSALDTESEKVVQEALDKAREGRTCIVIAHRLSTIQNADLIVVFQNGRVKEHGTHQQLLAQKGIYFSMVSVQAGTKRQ

By EC50 is commonly meant the midpoint of the concentration-response curve. The term IC50 denotes the concentration that inhibits the measured activity by half. Compound `N#Cc1nn(-c2cc(Cl)c(Oc3n[nH]c(=O)c4ccccc34)c(Cl)c2)c(=O)[nH]c1=O` [Compound 2, 2-(3,5-dichloro-4-((4-oxo-3,4-dihydrophthalazin-1-yl)oxy)phenyl)-3,5-dioxo-2,3,4,5-tetrahydro-1,2,4-triazine-6-carbonitrile] had an EC50 in assay [1] of 1.75 µM. The “LDL-c, total cholesterol, and Apo-B” value in assay [2] (Day 3 after single dose) was “Dose-dependent decreases”. In addition, in assay [2] (setting [5]), the “Apo B LSM % change” value is −2.7%, the “Apo B change from baseline” value is reported as −1.5, the “HDL-c LSM % change” value came to 2.4% and the “HDL-c change from baseline” value was determined as 0.87. In assay [2] (setting [5]), the “LDL-c LSM % change” value is listed as −3.1%, the “LDL-c change from baseline” value is listed as −3.98, the “SHBG LSM % change” value is listed as 6.3% and the “SHBG change from baseline” value came to 0.20 nmol/L. In assay [2] (setting [5]), the “TC LSM % change” value is −0.88% and the “TC change from baseline” value is −1.85. Further, in assay [2] (setting [6]), the “Apo B LSM % change” value was −6.0%, the “Apo B change from baseline” value was −5.6, the “HDL-c LSM % change” value is −1.0% and the “HDL-c change from baseline” value was −1.1. In addition, in assay [2] (setting [6]), the “LDL-c LSM % change” value was determined as 0.70%, the “LDL-c change from baseline” value came out at 0.68, the “SHBG LSM % change” value came to 31.3% and the “SHBG change from baseline” value came to 15.8 nmol/L. For the same compound, in assay [2] (setting [6]), the “TC LSM % change” value is reported as −0.84% and the “TC change from baseline” value is reported as −1.93. In addition, in assay [2] (setting [7]), the “Apo B LSM % change” value is given as −11.0%, the “Apo B change from baseline” value is −11.5, the “HDL-c LSM % change” value is −12.1% and the “HDL-c change from baseline” value is listed as −6.1. For the same compound, in assay [2] (setting [7]), the “LDL-c LSM % change” value is −12.5%, the “LDL-c change from baseline” value was −15.7, the “SHBG LSM % change” value is recorded as 16.5% and the “SHBG change from baseline” value amounted to 6.0 nmol/L. Besides, in assay [2] (setting [7]), the “TC LSM % change” value is reported as −11.84% and the “TC change from baseline” value is given as −24.14. Besides, in assay [2] (setting [8]), the “Apo B LSM % change” value is listed as −15.75%, the “Apo B change from baseline” value is given as −13.9, the “SHBG LSM % change” value came to 13.8% and the “SHBG change from baseline” value turned out to be 5.05 nmol/L. Further, the triglyceride levels entry in assay [2] (after a single dose) is recorded as “No significant changes”. Further, the “SHBG relative to placebo” value in assay [2] (single doses of ≥10 mg) is given as “Significant increases”. The IC50 in assay [3] was 2.01 µM.

Regarding `Cn1cc(C(=O)O)c2ccc(N3CCC(OCc4c(-c5c(Cl)cccc5Cl)noc4C4CC4)CC3)cc21` [Compound 3], the 50% inhibitory concentration (IC50) in assay [4] was 3.92 µM.
